Test results as given in US10005756B2, “Pyrrolidinone derivatives as MetAP-2 inhibitors” (Merck Patent GmbH, priority 2014, dated 2018).

Tested on: human umbilical vein endothelial cells (HUVEC)
Test: HUVEC proliferation quantified by BrdU incorporation
Format: cell-based
Conditions: HUVEC, read-out: IC50 HUVEC
Protocol: Determination of the Proliferation Inhibition by Inhibitors of Methionine Aminopeptidase 2 in the BrdU Proliferation Test (Cellular Assay)
After detachment of the cells by means of trypsin/EDTA, the number of living cells is determined, and the cells are sown in a density of 1000 cells per cavity in a total volume of 175 μl (cavities are coated in advance either with supplemented culture medium for 1-2 hours at 37° C. or with 1.5% gelatine for 0.5-2 hours at 37° C.). After cultivation for 24 hours, the test substances are added in various concentrations (for example final concentrations 30 μM to 0.03 nM in 10-fold dilution steps) and a volume of 25 μl. The DMSO concentration is kept constant at 0.3%. […] To this end, the cells are treated with a fixative for 30 min at room temperature and subsequently incubated with a peroxidase-labelled anti-BrdU antibody (diluted 1:100 in antibody dilution buffer) for 60 min at room temperature. […] The colour development is stopped after 15 min by addition of 25 μl of a 1M sulfuric acid solution. […] The controls used are cavities containing DMSO-treated cells (100% control) or empty cavities (blank value).
HUVEC Proliferation Quantified by BrdU Incorporation
HUVEC Means Human Umbilical Vein Endothelial Cells
HUVEC proliferation is measured after a 5 day incubation period using incorporation of BrdU as a measure of cell cycle activity. Cells are incubated in the presence or absence of test substances. During the last 18 to 24 hours of the incubation period BrdU is added to the medium. BrdU is incorporated into the DNA as the cells progress through S-phase (DNA synthesis) of the cell cycle. The cells are fixed and the amount of BrdU incorporated can be quantified using a commercial ELISA for detection of BrdU.
HUVEC are routinely cultured in EGM MV medium and used between passages 3 and 8.
All substances are run in triplicate.
Reference compounds are run in every assay.
Data is analyzed using the Assay Explorer program. Briefly, the blank is subtracted from all values, the triplicates are averaged and normalized to the untreated. EC50 is determined from a 4-parameter general sigmoidal curve (Hill fit y=(s0−slnf)/(1+(x/AC50)^nHill)+slnf) in Assay Explorer, Symyx). The processed data (EC50 or % Effect if no EC50 if reached, Efficacy) is uploaded directly from Assay Explorer to the MSRDB.

`O=C(NCc1cc(F)cc(Cl)c1)C1(O)CCN(c2cccc(-c3nnn[nH]3)c2)C1=O` (stereo not drawn) [Compound A7] showed an IC50 of 30 µM.

`O=C(NCc1cc(F)cc(Cl)c1)[C@@]1(O)CCN(c2ccc3[nH]c(-c4nnn[nH]4)cc3c2)C1=O` [Compound A10] was tested, and the IC50 was 3.8 µM.

`O=C(NCc1cc(F)cc(Cl)c1)[C@@]1(O)CCN(c2cnc(Cl)c(F)c2)C1=O` [Compound A4] showed an IC50 of 11 µM.
